Data: patent EP0046707B1, “Derivatives of 4-aminobutyric acid and the medicines especially active on the central nervous system containing them” (priority 1980, dated 1982)
Like-named read-outs stand apart in the source and are kept apart here.

How the values were obtained:
[1] = test system: souris; test: Potentiation of pentobarbital narcosis (loss of righting reflex); type: in vivo; details: po; mouse, p. os 1 h before pentobarbital 20 mg/kg i.p.; unit not given for DE 50; read-out: dose (p. os) provoquant 50 % d'induction de narcose (DE 50)
Method: Les produits à étudier ont été administrés per os chez la souris à la dose de 500 mg/kg, 1 h avant le pentobarbital injecté par voie intrapéritonéale à raison de 20 mg/kg.
On détermine le pourcentage des animaux ayant perdu le réflexe de retournement. Les résultats sont exprimés en pourcentage ou, dans quelques cas, en dose efficace 50 (DE 50) ou dose provoquant la narcose chez 50 % des animaux traités.
Les résultats figurent dans le tableau VI ci-après.

[2] = Acute toxicity (mortality over 24 h); details: in vivo, po, mouse, observed 24 h
Method: Les produits à étudier sont administrés par voie orale aux doses de 500 et 1 000 mg/kg à des lots de souris. On observe les souris pendant 24 h et note la mortalité.
Les résultats exprimés en pourcentage de mortalité figurent dans le tableau XI ci-après.

[3] = test system: acide homovanillique (HVA); test: Effect on central dopaminergic activity (homovanillic acid accumulation in whole brain); type: in vivo, souris; details: mouse whole brain, 500 mg/kg p.os
Method: L'effet des produits sur l'activité dopaminergique centrale a été étudié par la mesure de l'accumulation de l'acide homovanillique sur une période de 24 h après l'administration des produits chez la souris.
Le taux d'acide homovanillique (HVA) est évalué dans le cerveau entier, les animaux reçoivent une injection de probenecid (200 mg/kg i.p.) 1 h 30 min avant le sacrifice (lot de 10 animaux).

[4] = test system: GABA (acide amino-4 butyrique); test: Effect on whole-brain GABA level; type: in vivo, souris
Method: Le 40039 a été administré 30 min avant le sacrifice chez la souris. Le taux de GABA a été évalué sur le cerveau entier (lots de 6 animaux) (voir tableau IX ci-après).

[5] = test system: rats; test: Electroencephalographic study (sleep/wake analysis per 24 h); type: in vivo; details: rat; for EV / SL / SP / ST: per 24 h
Method: Pour mieux comprendre l'activité hypnotique des produits selon l'invention, une étude électroencéphalographique a été effectuée sur l'un deux, à savoir CM 40039.
[…] Après une période d'habituation de 10 jours (période éclairée de 8 h à 20 h et période obscure de 20 h à 8 h), les animaux sont enregistrés pendant 5 jours avec le solvant (gomme arabique à 10 %), puis enregistrés pendant 4 jours pendant lesquels ils reçoivent le produit à 9 h chaque matin. Après cette administration chronique, les animaux sont enregistrés les 5 jours suivants (période de contrôle).
Les animaux sont enregistrés 24 h sur 24. L'étude statistique porte sur des tranches de 24 h. On fait une analyse globale sur les trois rats en cumulant les 15 journées témoins, les 12 journées de traitement, les 15 journées de contrôle. Dans chaque tranche horaire de 24 h, on évalue le temps d'éveil (EV), de sommeil lent (SL), de sommeil paradoxal (SP), de sommeil total (ST), ainsi que le rapport (en %) sommeil paradoxal/sommeil total (SP/ST) (voir tableau VII ci-après).

[6] = test system: souris; test: Anticonvulsant effect against electroshock seizures; type: in vivo; details: 1 h; mouse, electroshock 12.5 V for 0.5 s, 60 min after oral dosing; read-out: Dose efficace médiane de protection des crises toniques (DE 50) Electrochoc
Method: (§1) L'effet anticonvulsivant a été déterminé vis-à-vis des crises convulsives provoquées par l'électrochoc ou par la bicuculline.
L'électrochoc (12,5 V pendant 0,5 s) est effectué chez la souris 60 min après l'administration du produit par voie orale.
(§2) En opérant sur divers lots d'animaux avec des doses différentes du produit à étudier, on peut déterminer la dose efficace médiane (DE 50).
(§3) Les résultats sont rassemblés dans le tableau VIII ci-après et montrent les propriétés anticonvulsivan- tes nettes des produits étudiés.

[7] = test system: souris; test: Actography (locomotor activity, two perpendicular light beams); type: in vivo; details: mouse, 500 mg/kg oral
Method: La mesure de l'actographie est effectuée chez la souris 45 min. après l'administration du produit. On opère sur des lots de 12 animaux, chacun d'eux étant isolé pendant 10 min. avant la mesure. Le comptage des scores est effectué par coupure de deux faisceaux lumineux perpendiculaires.
Dans le tableau IV ci-après sont rassemblés les résultats obtenus avec divers produits de l'invention administrés à la dose de 500 mg/kg par voie orale. Les résultats sont exprimés en pourcentage de variation des scores obtenus par rapport à des animaux témoins non traités.
On peut constater que les produits se répartissent en deux groupes : • ceux provoquant de l'hypomotilité tels que 40217, 40039, 40271, 40272, 40319; dans le cas où les animaux traités présentent une perte du réflexe de retournement, ce qui traduit l'effet de narcose propre du produit, on a noté PRR; • ceux provoquant de l'hypermotilité, tels que 40142, 40398, 40397, 40404, 40253, 40355, 40209; pour préciser les résultats obtenus, l'étude pour deux produits a été reprise en effet-dose suivant le même protocole. • Les résultats obtenus figurent dans le tableau V ci-après.

[8] = test system: souris; test: Anticonvulsant effect against bicuculline-induced tonic seizures; type: in vivo; details: 1 h; mouse, bicuculline 1 mg/kg i.v. 60 min after oral dosing; read-out: Dose efficace médiane de protection des crises toniques (DE 50) Bicuculline
Method: as §1
La bicuculline est administrée à la souris par voie intraveineuse à raison de 1 mg/kg, 60 min après le produit à étudier donné per os. On note l'effet protecteur obtenu vis-à-vis des crises toniques.
as §2, §3

[9] = post-treatment 'Contrôle' period

## CCCCN(CCCC)C(=O)CCCNC(=O)CCC [40 039, Butyl-10 dioxo-4,9 diaza-5,10 tétradécane]
[1]
  ED50: 200 mg/kg
[2]; 500 mg/kg p. os, read-out: p. cent de mortalité à 500 mg/kg p. os
  mortality at 24 h: 0%
[2]; 1000 mg/kg p. os, read-out: p. cent de mortalité à 1000 mg/kg p. os
  mortality at 24 h: 100%
[3]; 2 h
  Taux de HVA en: 798 ± 34 ng/g
[3]; 4 h
  Taux de HVA en: 894 ± 37 ng/g
[3]; 6 h
  Taux de HVA en: 659 ± 29 ng/g
[3]; 6 h, change vs time 0
  Taux de HVA (variation vs 0): 0%
[3]; 24 h
  Taux de HVA en: 441 ± 19 ng/g
[3]; time 0 (baseline)
  Taux de HVA en: 658 ± 40 ng/g
[4]; mouse whole brain, 500 mg/kg p. os, 30 min before sacrifice
  Taux de GABA en µg/g cerveau: 321 ± 12 µg/g cerveau
[4]; mouse whole brain, 500 mg/kg p. os, change vs controls
  Taux de GABA p.cent/témoins: 14,6 p.cent
[4]; mouse, result in words
  taux de GABA dans le cerveau total: rapide augmentation
[5]; 'Contrôle' = 5 days after end of chronic treatment
  EV: 40,3 ± 3,6
[5]; [9]
  SP/ST: 13,5 ± 1,8%
  SL: 51 ± 3
  SP: 8,6 ± 1,7
  ST: 59,6 ± 3,9
[5]; treatment period (12 days pooled, 3 rats), 325 mg/kg as in table head, wake time
  EV: 40,6 ± 3
[5]; treatment period, paradoxical sleep
  SP: 8,1 ± 1,4
[5]; treatment period, slow-wave sleep
  SL: 51,5 ± 2
[5]; treatment period, total sleep
  ST: 59,5 ± 2,6
[5]; treatment period, ratio paradoxical/total sleep
  SP/ST: 13,2 ± 1,9%
[6]
  ED50: 250 mg/kg
[7]; 45 min after dosing, change of scores vs untreated controls, PRR = loss of righting reflex
  Mesure de l'actographie (p. cent scores/témoins): PRR
[7]; grouping in words
  hypomotilité / hypermotilité: hypomotilité
[8]
  ED50: 300 mg/kg
